According to US20250302748A1, “METHOD FOR ENHANCING THE EFFICIENCY OF DRUG LOADING INTO EXTRACELLULAR VESICLES AND MEDICINAL PRODUCTS THEREOF” (Shine-On BioMedical CO., LTD., priority 2024, published 2025):
Counter-ions that a name gives are not always drawn.

Columns and labels:
[1] = system: breast cancer cells (MDA-MB-231); assay: Orthotopic breast cancer animal model, IVIS luminescence; assay type: in vivo, mice; settings: day 49, two weeks after final administration; tail vein injections for six weeks; luminescence converted into tumor volume
Text: Referring to FIG. 9C, a breast cancer animal model was applied to evaluate the efficacy and biocompatibility of exosome 10 loaded with the target drug. In this experiment, the breast cancer animal model was constructed by injecting the breast cancer cells (MDA-MB-231) orthotopically into the mammary fat pad of the mice and then culturing the breast cancer cells into tumor. The mice were divided into drug treatment groups 1 to 3 and control group 1. The breast cancer animal model in drug treatment groups 1 to 3 were received the target drug directly (Dox-HCl), the liposome injection loaded with the target drug Dox-HCl (Dox@Lipo), and the exosomes 10 loaded with the target drug Dox-HCl (Dox@EXO) respectively; the control group 1 is the group treated with a placebo (PBS) (Ctrl).
Each group (groups 1-3 and control group 1) of the breast cancer animal model described above was received tail vein injections continuously for six weeks administration following the injection of breast cancer cells (MDA-MB-231). Tumor development was monitored and imaged using an in vivo imaging system (IVIS Imaging System), which measured tumor progression based on a luminescence signal of the tumor.

[2] = Safety study with serum biochemical analysis after third weekly administration; assay type: in vivo, Immunocompetent mice
Text: Furthermore, to confirm that exosome 10 retains its biocompatibility after loading the target drug and is safe for in vivo use, please refer to Table 5, an animal model is applied to evaluate the safety. Immunocompetent mice were divided into control group (Control), vehicle control group (Vehicle control), drug treatment group (Dox), and exosome treatment groups 1-3 (Dox@EXO 1-3). The groups above were weekly administered Lactated Ringer's solution, the exosomes 10, the target drug (Doxorubicin, Dox-HCl), and the exosomes 10 loaded with the target drug Dox-HCl (Dox@EXO) in concentrations of 2 mg/kg, 6 mg/kg, and 12 mg/kg respectively. After receiving the third administration, blood samples were collected for serum biochemical analysis to monitor organ function.

[3] = 12 mg/kg weekly, after third administration, serum

## COc1cccc2c1C(=O)c1c(O)c3c(c(O)c1C2=O)C[C@@](O)(C(=O)CO)C[C@@H]3O[C@H]1C[C@H](N)[C@H](O)[C@H](C)O1 [Dox-HCl, Doxorubicin hydrochloride]
[1]
  Inhibition rate of tumor growth: 73.8%
[2]; [3]
  ALB (Albumin): 2.68 g/dL
  ALP (Alkaline Phosphatase): 182.52 U/L
  ALT: 29.52 U/L
  AMY (Amylase): 3424.8 U/L
  AST: 76.88 U/L
  CK (Creatine kinase): 236.06 U/L
  LDH (Lactate Dehydrogenase): 648.28 U/L
[2]; Dox 12 mg/kg, Dox@EXO 2, 6 and 12 mg/kg
  Difference in serum biochemical parameters versus control group (One-way ANOVA): significant differences in liver function markers such as albumin (ALB) and alkaline phosphatase (ALP)
